Data on 81 compounds can be found in PubChem BioAssay AID977621 (Broad Institute, 2014).

This assay relates to E. coli wild-type GFP strain growth, fluorescence, 24 h. In words: growth inhibition of wild-type GFP E. coli, dose response, H69 mutant RFP, cherry-pick (AID 977621).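 Further: wild-type GFP and H69 mutant RFP strains grown together 50/50 in each well.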
[1] abbreviates: E. coli mixed culture, 24 h, measured here: total growth OD600, test 2.
The mark [2] stands for this setting: measured here: total growth OD600, test 2.

Molecules are shown by their SMILES. Results filed as inconclusive are left out. The source made the active and inactive calls.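 How the source made its calls: active means Wild-type ribosome reporter drop at least double the humanized mutant ribosome reporter drop, growth loss under a set limit; inconclusive means no clear call, values can overlap the other calls; inactive means the rest.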

Take `O=C(CCc1ccccc1)Nc1sc2c(c1C(=O)O)CCCC2`: the AC50 was > 100 µM (inactive).
Take `CC(C)(C)c1ccc(N2C(=O)CSC2c2cccnc2)cc1` (configuration not stated): the AC50 under setting [1] was above 100 µM.
Turning to `O=C(Cc1ccc(Br)cc1)Nc1cccc(-c2cn3c(n2)SCC3)c1`, the AC50 under setting [1] was above 100 µM.
In the case of `c1ccc(-n2c(SCc3nc(-c4cccs4)no3)nnc2-c2ccco2)cc1`, the AC50 was > 100 µM (inactive). In addition, the half-maximal activity concentration (AC50) under setting [1] was 42.5 µM.
`CCOC(=O)c1c(NC(=O)CN2CCC(C)CC2)sc(C)c1C` displayed an AC50 under setting [1] of 48.5 µM.
Regarding `O=C1Nc2ccc(F)cc2C12Nc1ccccc1-c1nnc(SCc3ccccc3)nc1O2` (configuration not stated), the AC50 is > 100 µM (inactive).
For `COc1ccc(OC)c(S(=O)(=O)Nc2cccc3ccc(O)cc23)c1`, the concentration at half-maximal activity (AC50) under setting [1] is above 100 µM.
On to `O=C(CN(CCO)c1ccccc1)Nc1cccc(S(=O)(=O)N2CCCC2)c1`, for which the AC50 is > 100 µM (inactive).
`CCN(CC(=O)Nc1cccc(S(=O)(=O)N2CCCC2)c1)CC(=O)Nc1ccccc1OC`: the AC50 under setting [1] is above 100 µM.
For `CN1OC[C@@H]2CN(C(=O)c3ccco3)[C@H](c3ccc(-c4ccc(C#N)cc4)cc3)C[C@@H]21`, the concentration at half-maximal activity (AC50) under setting [1] was above 100 µM.
Regarding `COc1ccc([C@H]2C[C@H](O)C[C@@H](CCn3cc(-c4ccccc4)nn3)O2)cc1`, the AC50 was > 100 µM (inactive). The concentration at half-maximal activity (AC50) under setting [1] is above 100 µM.
Under setting [1], `CCCC#C/C(CCC)=C1\c2ccccc2C(=O)N1c1ccccc1` displayed an AC50 above 100 µM.
For the compound `O=C(Cn1c2[n+](c3ccc(C(F)(F)F)cc31)CCCCC2)c1ccc2c(c1)OCCO2`, the AC50 is > 100 µM (inactive).
Regarding `COc1ccc(C2=NN(C(=O)c3cccnc3)C(c3ccccc3)C2)cc1` (configuration not stated), the half-maximal activity concentration (AC50) under setting [1] was found to be 1.05 µM.
The same measure, in the same setting: to `O=C(NCc1ccco1)c1ccc2ccccc2n1` belongs above 100 µM.
In the case of `CC1(C(=O)Nc2ccc3c(c2)OCCO3)CSCC(=O)N1CCOc1ccccc1` (configuration not stated), the AC50 was > 100 µM (inactive). The compound further had an AC50 under setting [1] above 100 µM.
Under setting [1], `Nc1ccccc1Sc1c[nH]c2ccccc12` gave an AC50 above 100 µM.
For `COc1cc2nc(Nc3ccc(F)cc3)nc(N)c2cc1OC`, the AC50 is > 100 µM (inactive).
Turning to `OC(COc1ccc(Cl)cc1)CN1CCN(c2ccccn2)CC1` (configuration not stated), the AC50 is > 100 µM (inactive).
In the case of `O=C(COC(=O)c1ccc([N+](=O)[O-])o1)NC12CC3CC(CC(C3)C1)C2`, the AC50 is > 100 µM (inactive). Further, the half-maximal activity concentration (AC50) under setting [1] is above 100 µM.
On the same counts, the results for `C=CCN(CC=C)C(=O)c1ccc2nc(Cc3ccc(OC)c(OC)c3)oc2c1` are > 100 µM (inactive) and above 100 µM.
In the case of `CC(C)(C)c1ccc(S(=O)(=O)NCc2ccc(C(=O)NCc3ccccn3)cc2)cc1`, the AC50 under setting [1] is above 100 µM.
Regarding `CS(=O)(=O)NCCSc1cc(C(F)(F)F)nc2ccccc12`, the AC50 is > 100 µM (inactive). This compound returned a concentration at half-maximal activity (AC50) under setting [1] of 30.4 µM.
Under setting [1], `COc1cccc(C(=O)NC(C)c2ccc(Br)cc2)c1` (configuration not stated) showed an AC50 above 100 µM.
Same read-out and setting: to `Fc1cccc(Cl)c1CSc1ccc(-c2ccco2)nn1` belongs above 100 µM.
`O=C1C(c2ccccc2)c2ccccc2N1Cc1ccccc1` (configuration not stated): the AC50 was > 100 µM (inactive).
The same measure, in the same setting: to `Nc1ccccc1C#CC(=O)c1ccccc1` belongs > 100 µM (inactive); to `O=C(COn1nnc2ccc(C(F)(F)F)cc21)Nc1c(Cl)cccc1Cl`, > 100 µM (inactive).
For `O=C(c1cc(COc2c(F)cccc2F)on1)N1C[C@H]2CC[C@H]1C2`, the AC50 was > 100 µM (inactive).
As for `COc1ccc(C2CC(=O)Oc3cc(C)cc(C)c32)cc1` (configuration not stated), under setting [1], the AC50 is above 100 µM.
The same measure, in the same setting: to `Cc1ccc(S(=O)(=O)N2CCCCC2C(=O)N2CCN(c3ccccc3F)CC2)cc1` (configuration not stated) belongs above 100 µM.
With `O=C(NCc1ccc(-c2nc3ccccc3s2)cc1)c1ccco1`, the AC50 is > 100 µM (inactive).
Consider `CC(OC(=O)CCc1c[nH]c2ccccc12)C(=O)c1ccccc1` (configuration not stated), for which the AC50 is > 100 µM (inactive). The same compound returned a half-maximal activity concentration (AC50) under setting [1] of 46.5 µM.
On the same counts, the results for `Cc1ccsc1C(=O)N1CCCC(C(=O)c2cc(F)ccc2F)C1` (configuration not stated) are > 100 µM (inactive) and above 100 µM.
`CCN(C(=O)COC(=O)c1ccc([N+](=O)[O-])o1)c1cccc2ccccc12`: the AC50 was > 100 µM (inactive).
As to `COCc1cc(C)nc(SCC[N+](C)(C)CC(=O)c2ccc(Br)cc2)c1C#N`, the AC50 is > 100 µM (inactive).
Same read-out and setting: to `Cc1ccc(Nc2cc(C(=O)NCCCN3CCOCC3)c3ccccc3n2)cc1C` belongs > 100 µM (inactive); to `c1ccc(CNc2ncnc3sccc23)cc1`, > 100 µM (inactive).
`CCOC(=O)C(C)Sc1nc(N2CCOCC2)c2c(c1C#N)CC(C)(C)OC2` (configuration not stated) gave a concentration at half-maximal activity (AC50) under setting [1] above 100 µM.
As to `O=C(NCc1nnc(SCc2ccccc2)n1-c1ccccc1)C12CC3CC(CC(C3)C1)C2`, the AC50 was > 100 µM (inactive). This compound also returned an AC50 under setting [1] of 38.6 µM.
With `Cc1ccc(C(=O)Nc2ccc3ncccc3c2)cc1`, the AC50 was > 100 µM (inactive).
On to `Cc1ccc(NC(=O)c2c(C)noc2-c2snnc2C)cc1`, for which the AC50 was > 100 µM (inactive).
As to `CS(=O)(=O)N(CC(=O)N1CCc2ccccc2C1)c1ccc(Br)cc1`, the AC50 was > 100 µM (inactive). The compound also registered an AC50 under setting [1] of 33.1 µM.
For `COc1cc2c(cc1OC)CN(c1ccc([N+](=O)[O-])c(C(F)(F)F)c1)CC2`, the AC50 was > 100 µM (inactive). This compound also came in with a concentration at half-maximal activity (AC50) under setting [2] above 100 µM.
For `O=C(COC(=O)c1cccc(S(=O)(=O)N2CCCCC2)c1)NCc1cccc(Cl)c1`, the AC50 is > 100 µM (inactive).
On the same count and under the same terms, to `O=C(NCc1nnnn1-c1ccc(Cl)cc1)c1ccc([N+](=O)[O-])o1` belongs > 100 µM (inactive); to `CCc1ccc(NC(=O)COC(=O)CCCC2=NS(=O)(=O)c3ccccc3N2)cc1`, > 100 µM (inactive).
Still for that read-out and setting: to `O=C(CN1C(=O)c2ccccc2C1=O)Nc1cccc(S(=O)(=O)Nc2ccccc2Cl)c1` belongs > 100 µM (inactive).
Compound `COc1ccc(CCCc2nc3ccccc3[nH]2)cc1` displayed a half-maximal activity concentration (AC50) under setting [1] above 100 µM.
Regarding `CCOc1ccc(CCNC(=O)CCc2nc3ccccc3[nH]2)cc1OCC`, the AC50 is > 100 µM (inactive). This compound also had a concentration at half-maximal activity (AC50) under setting [1] above 100 µM.
In the case of `COc1ccc(CC(=O)Oc2ccc(C)cc2C)cc1`, under setting [1], the AC50 was above 100 µM.
With `Fc1cccc(Cc2noc(CN3CCCCC3CCc3ccccn3)n2)c1` (configuration not stated), the AC50 was > 100 µM (inactive). This compound also displayed an AC50 under setting [1] above 100 µM.
As to `O=C1NC(=O)C2(Cc3cc([N+](=O)[O-])ccc3N3CCN(C(=O)c4ccccc4)CC32)C(=O)N1` (configuration not stated), the AC50 is > 100 µM (inactive).
Take `Cc1cc(C(=O)COC(=O)c2ccc(Br)o2)c(C)n1C`: the AC50 was > 100 µM (inactive). Besides, the AC50 under setting [1] was found to be 48.4 µM.
In the case of `Cc1c(C(=O)N(Cc2ccc(F)cc2)C2CCS(=O)(=O)C2)oc2ccccc12` (configuration not stated), the AC50 was > 100 µM (inactive).
On to `Cc1cc(OCCCCOc2ccc(S(N)(=O)=O)c(C)c2)ccc1S(N)(=O)=O`, for which the AC50 was > 100 µM (inactive). Further, under setting [1], the half-maximal activity concentration (AC50) was 49.4 µM.
With `Cc1cc(C(=O)NCCC2=CCCCC2)ccc1[N+](=O)[O-]`, the AC50 was > 100 µM (inactive).
Same read-out and setting: to `C=CCn1c(-c2sc(-c3ccccc3)nc2C)n[nH]c1=S` belongs > 100 µM (inactive); to `COc1cc(NC(=O)C(c2ccccc2)c2ccccc2)c(C(=O)O)cc1OC`, > 100 µM (inactive).
For the compound `NS(=O)(=O)c1cc(C(=O)OCC(=O)Nc2ccccc2[N+](=O)[O-])ccc1Cl`, the AC50 is > 100 µM (inactive). Under setting [1], this compound displayed a concentration at half-maximal activity (AC50) above 100 µM.
Regarding `COc1cc(C(N)=O)cc(Br)c1OCc1ccccc1`, the AC50 was > 100 µM (inactive). Under setting [1], this compound displayed a concentration at half-maximal activity (AC50) of 35.4 µM.
For the compound `CCOc1ccccc1C(=O)OCC(=O)NCCc1ccc(OC)cc1`, the AC50 is > 100 µM (inactive).
Under setting [1], `Cc1cc(C)c(NC(=O)C(C)c2cccc(C(=O)c3ccccc3)c2)c(C)c1` (configuration not stated) returned an AC50 of 47.2 µM.
As for `CC(C)(C)NC(=O)C(c1ccncc1)N(Cc1ccc(F)cc1)C(=O)c1ccc(-c2ccccc2)[nH]1` (configuration not stated), the concentration at half-maximal activity (AC50) under setting [1] is above 100 µM.
As for `COC(=O)c1ccc(CN2CCCC(CO)(Cc3ccccc3F)C2)cc1` (configuration not stated), the AC50 was > 100 µM (inactive).
As to `CCc1cc(C(=O)N2CCCC(C(=O)c3cccc4ccccc34)C2)n(C)n1` (configuration not stated), under setting [1], the half-maximal activity concentration (AC50) was above 100 µM.
Compound `CN(C)CCCn1c(=O)n(Cc2ccco2)c(=O)c2c3c(sc21)CCCCC3` returned an AC50 under setting [1] above 100 µM.
`Cc1c(-c2cccc(Cl)c2)nc2ccccc2c1C(=O)N1CCC2(CC1)OCCO2`: the AC50 was > 100 µM (inactive). Besides, the AC50 under setting [2] was above 100 µM.
As for `O=C(CSc1nc2ccccc2[nH]1)Nc1cccc(S(=O)(=O)N2CCOCC2)c1`, the AC50 is > 100 µM (inactive). Also, the AC50 under setting [1] amounted to 33.9 µM.
In the same order, the values of `CN1C(=O)c2ccccc2OC1(C)Cc1ccccc1` (configuration not stated) are > 100 µM (inactive) and 41.6 µM.
Take `N#Cc1nc(Cc2ccccc2)oc1N1CCCC1`: the AC50 was > 100 µM (inactive).
Take `CSc1nc(SC(C)C(=O)O)c2c3c(sc2n1)COC(C)(C)C3` (configuration not stated): the AC50 was > 100 µM (inactive).
Regarding `CCOC(=O)c1cc(-c2ccc(OC)cc2)n[nH]1`, the half-maximal activity concentration (AC50) under setting [1] is above 100 µM.
For `COC(=O)CNC(=O)COC(=O)c1ccc(Cl)nc1`, the concentration at half-maximal activity (AC50) under setting [1] is above 100 µM.
`O=C(NCCc1ccc(Cl)cc1)c1ccc2nc[nH]c2c1`: the AC50 was > 100 µM (inactive).
For the compound `C[C@@H]1CCCCO[C@@H](CN(C)C(=O)c2ccccc2)[C@H](C)CN([C@@H](C)CO)C(=O)c2cc(NC(=O)Cc3ccccc3)ccc2O1`, the AC50 was > 100 µM (inactive). For the same compound, the AC50 under setting [1] was above 100 µM.
Regarding `COc1ccc(CNC(=O)Cc2cn(C)c3ccccc23)c(OC)c1`, the AC50 under setting [1] is above 100 µM.
In the case of `O=[N+]([O-])c1cncc([N+](=O)[O-])c1Nc1cccc(O)c1`, the AC50 is > 100 µM (inactive).
On the same count and under the same terms, to `CC(C)N1CC2(CC(c3ccccc3C(F)(F)F)=NO2)CN1C(=O)c1ccco1` (configuration not stated) belongs > 100 µM (inactive).
Take `O=C(CSc1nnc(-c2ccccc2F)n1C1CC1)Nc1cccnc1Cl`: under setting [1], the half-maximal activity concentration (AC50) is above 100 µM.
With `CC(=O)N1c2c(cc(Br)cc2S(=O)(=O)N2CCCCC2)CC1C` (configuration not stated), the AC50 was > 100 µM (inactive).
